Data published in patent publication US9211349B2, “Molecular probes for multimodality imaging of anionic membrane surfaces” (Molecular Targeting Technologies, Inc., priority 2012, dated 2015).

Test system: U87MG cells
Test: MTT assay, cytotoxicity of paclitaxel on U87MG cells
Format: cell-based, human
Description: A U87MG human glioblastoma cell line was obtained from the American Type Culture Collection (Manassas, Va., USA). U87MG glioma cells were grown in Dulbecco's modified medium (USC Cell Culture Core, Los Angeles, Calif., USA) supplemented with 10% fetal bovine serum at 37° C. in humidified atmosphere containing 5% CO2.
The toxicity of paclitaxel to U87MG cells was determined by a colorimetric assay with 3-(4,5-dimethylthiazol-2-yl)-2,5-diphenyl tetrazolium bromide (MTT; Alfa Aesar). All studies were performed with triplicate samples and repeated at least three times. Briefly, cells were harvested by trypsinization, resuspended in Dulbecco's modified medium, and plated in a 96-well plate at 4,000 cells per well. After treatment with different doses of paclitaxel (ranging from 1 nM to 500 nM) for 16 hours, 22 μL of 0.5 mg/mL sterile filtered MTT was added to each well. The un-reacted dye was removed after 4 hours of incubation, and the insoluble formazan crystals were dissolved in 150 μL of DMSO. The absorbance at 490 nm was measured with a microplate reader (SpectraMax M2e, Molecular Devices, CA).
FIG. 3 is a graph illustrating cytotoxicity of paclitaxel on U87MG cells determined by MTT assay. The best-fit 50% inhibitory concentration (IC50) values were calculated by fitting the data with nonlinear regression using Graph-Pad Prism 5.0 (Graph-Pad Software, San Diego, Calif.).

CC(=O)O[C@H]1C(=O)[C@@]2(C)[C@H]([C@H](OC(=O)c3ccccc3)[C@]3(O)C[C@H](OC(=O)[C@H](O)[C@@H](NC(=O)c4ccccc4)c4ccccc4)C(C)=C1C3(C)C)[C@]1(OC(C)=O)CO[C@@H]1C[C@@H]2O [paclitaxel]
sensitivity of U87MG cells to treatment (1 nM to 500 nM, 16 hours): sensitive
IC50 (Homo sapiens, U-87 MG, after 16 hours of incubation): 61.4 nM
